Assay results: PMC11926788, “Effect of SSR504734, a Selective Glycine Transporter Type 1 Inhibitor, on Seizure Thresholds, Neurotransmitter Levels, and Inflammatory Markers in Mice” (ACS Chemical Neuroscience, 2025)
Where a name gives a salt, the structure may show the parent alone.

Columns and labels:
[1] = test system: human serum albumin and alpha-1-acid glycoprotein; test: Plasma protein binding (TRANSIL XL PPB test); type: in vitro ADME; settings: ± SD, fraction bound to plasma proteins, read-out: PPB fb (converted)
Method: A series of in vitro ADME-Tox tests were performed for SSR504734 in order to estimate its drugability. The ADME-Tox parameters including permeability, plasma protein binding, metabolic stability, neurotoxicity, and hepatotoxicity were carried out as described previously.[31],[32] The ability of SSR504734 to penetrate through the biological membrane by passive diffusion was estimated by the Gentest Precoated PAMPA Plate System (Corning, Tewksbury, MA) and expressed as the permeability coefficient (Pe). The protein binding analysis was performed by using the commercial TRANSIL^XL PPB test, which mimics in vitro physiological plasma conditions where human serum albumin (HAS) and alpha-1-acid glycoprotein AGP are present in a 24:1 ratio. The human metabolism of SSR504734 was studied using human liver microsomes (HLMs) provided by Sigma-Aldrich. The hepatotoxicity and neurotoxicity were estimated in cellular models with the use of hepatoma HepG2 and neuroblastoma SH-SY5Y cell lines to perform the preliminary safety tests. The cells were incubated with SSR504734 at the concentration range of 0.1–100 μM. 1 μM cytostatic drug doxorubicin (DX) was used as the reference.

GlyT1 = settings: in vitro assay; cited from earlier work
[2] = test system: glutamate, GABA, adenosine, glycine concentrations in cortex, hippocampus, brainstem; test: Determination of neurotransmitters in brain structures (LC-MS/MS, HPLC-FLD); type: in vivo, mice
Method: Mice were administered with SSR504734 or saline acutely or repeatedly for 14 days and subjected to maximal electroshock seizures 60 min after treatment. Immediately following seizure induction, the animals were decapitated. Brains were removed from the skull and washed with ice-cold 0.9% NaCl. Cortex, hippocampus, and brainstem were isolated by microdissection and collected into Eppendorf tubes. Samples were frozen in liquid nitrogen and kept at −80 °C until the day of analysis.
Adenosine, GABA, and glutamate concentrations in mouse cortex, brainstem, and hippocampus were determined using an LC-MS/MS method. Stock solutions of GABA, adenosine, glutamate, and their internal standards (ISs), i.e., adenosine-13C5, GABA-d6, and glutamate-d5 (Toronto Research Chemicals Inc., Canada), were prepared using methanol for GABA and its IS and deionized water for adenosine, glutamate, and their ISs and stored at 4 °C. The stock solutions of GABA, adenosine, and glutamate were then appropriately diluted with acetonitrile/water 1:1 (v/v) solution to achieve various concentration levels required for the experiments. Brain tissue samples were homogenized using a Bead Ruptor Elite, bead mill homogenizer (Omni International, USA) with 90 μL of deionized water per 10 mg of tissue. The resulting homogenates were further diluted at 1:10 to 1:100 (v/v) ratios (depending on the expected analyte concentration) with acetonitrile/water 1:1 (v/v) solution. […] The supernatants were then placed in autosampler vials.
Analyte separation was performed on an Exion LC AC system (Sciex, USA) coupled with a QTRAP 4500 triple quadrupole MS instrument (Sciex, USA). A 0.2 to 2 μL aliquot of sample was injected via an autosampler maintained at 15 °C into an XBridge HILIC (Waters, Ireland) analytical column (2.1 × 150 mm, 3.5 μm) with the column oven set at 25 °C.
MS detection employed electrospray ionization (ESI) in positive ion mode. According to the results of flow-injection analysis, curtain gas was set at 30 psi, ion spray voltage at 5500 V, and the source temperature at 450 °C, with ion spray gases 1 and 2 at 50 and 40 psi, respectively.
Data acquisition and processing were conducted with Analyst version 1.7 software. The calibration curves were constructed by plotting the ratio of the peak areas of the target analytes to those of their respective ISs against the concentrations of the analytes. These curves were derived using a weighted linear regression analysis method (1/x). Due to the availability of stable isotope-labeled standards and the high endogenous concentrations of adenosine, glutamate, and GABA in the brain tissue, the calibrators were prepared in water.
Glycine concentrations in brain structures were analyzed by using high-performance liquid chromatography with fluorescence detection (HPLC-FLD). A stock solution of glycine (20 mg/mL) was prepared in water and diluted with the same solvent to prepare working standard solutions at the concentration range of 0.2–20 μg/mL. The homogenates were obtained as described above, and they were centrifuged before analysis for 5 min at 10,000 rpm (Eppendorf miniSpin centrifuge). To prepare samples for analysis, 2 μL (for brainstem) or 5 μL (for the remaining structures) of homogenate supernatants was transferred to Eppendorf tubes and diluted with water to 20 μL. […] The reaction mixture was vortexed for 15 s, spinned down to make sure that all the sample is at the bottom of the tube, and incubated for 3 min at room temperature in darkness. The aliquots of 5 μL were injected into the column. […] The EZChrom Elite Client/Server v. 3.2 software was used for data collection and analysis. […] The mobile phase consisted of methanol (solvent A) and 0.05 M phosphate buffer adjusted to pH = 4.5 with phosphoric acid 30% (solvent B) and run in a gradient mode at a flow rate of 1 mL/min.

[3] = test system: i.v. PTZ-induced seizures in mice; test: Intravenous (i.v.) PTZ seizure threshold test; type: in vivo; settings: VPA 150 mg/kg
Method: Mice were individually placed in a plastic restrainer (12 cm long, 3 cm inner diameter), and the lateral vein of each mouse was catheterized using a 27-gauge needle (Sterican, B. Braun Melsungen, Melsungen, Germany). The needle was attached by polyethylene tubing (PE20RW, Plastics One Inc., Roanoke, VA, USA) to a 10 mL plastic syringe containing 1% solution of PTZ in saline (Sigma-Aldrich, St. Louis, MO, USA) and mounted to a syringe pump (model Physio 22, Hugo Sachs Elektronik, Harvard Apparatus GmbH, March-Hugstetten, Germany). Piece of adhesive tape was used to secure the needle. The proper placement of the needle in the vein was verified by the appearance of blood in the tubing. During the test, mice were placed in a transparent box for observation. The PTZ solution was administered to freely moving mice at a constant rate of 0.2 mL/min. The time intervals from the initiation of PTZ infusion to the occurrence of the three following end points, i.e., (1) the first myoclonic twitch, (2) generalized clonic seizure with loss of righting reflex, and (3) forelimb tonus, were recorded. The PTZ infusion was terminated when tonic seizures, which were often fatal for the mice, began. All mice that survived were euthanized immediately. The thresholds were calculated separately for each end point using the following formula: threshold dose of PTZ (mg/kg) = infusion duration (s) × infusion rate (mL/s) × PTZ concentration (mg/mL)/body weight (kg). Seizure threshold was expressed as the amount of PTZ (mg/kg) ± SD (standard deviation) needed to produce the first observable sign of each end point. Each group consisted of 12–15 animals.

[4] = acute treatment i.p., nonstimulated (sham) mice

## O=C(NC(c1ccccc1)C1CCCCN1)c1cccc(C(F)(F)F)c1Cl [SSR504734, 2-chloro-N-[(S)-phenyl[(2S)-piperidin-2-yl]methyl]-3-trifluoromethyl benzamide monohydrochloride]
[1]
  fraction unbound: 0.013
GlyT1
  IC50 for GlyT1 inhibition: 7.8 (±2.6) ng/mL
[2]; 14-day treatment, nonstimulated (sham) and MES-stimulated mice
  glutamate, GABA, adenosine, glycine concentrations in brain structures: No alterations
[2]; acute treatment i.p.
  GABA and glycine concentrations in any of the studied brain regions: did not alter
  adenosine concentrations in cortex and hippocampus: no changes
  glutamate concentration in cortex and hippocampus: No alterations
[2]; acute treatment i.p., mice subjected to the MES test
  glutamate concentration in the brainstem: no statistically significant changes
[2]; [4]
  fold decrease of adenosine concentration in the brainstem: ~2 fold
  glutamate concentration in the brainstem: significant decrease
[3]; 14-day treatment i.p.
  effect on thresholds for myoclonic twitch, generalized clonus and forelimb tonus: no significant effect
[3]; single administration i.p.
  effect on thresholds for myoclonic twitch, generalized clonus and forelimb tonus: no significant effect
